Data: patent US11661404B2, “Prodrug compounds activated by AKR1C3 and their use for treating hyperproliferative disorders” (priority 2018, dated 2023)
Where two headings read alike, the source gives them in different places.

Columns and labels:
[1] = tested on: wild-type SNU398 hepatocellular carcinoma cells; assay: Anti-proliferative IC50 assay, wild-type SNU398; format: cell-based
Procedure: (§1) Four hundred cells were seeded in a volume of 100 μL in each well of a 96-well plate. The cells were left in a humidified incubator (37° C., 5% CO2) for 2 hours in order to enable attachment to the surface of the wells prior to compound addition. All compounds were prepared as stocks in DMSO and stored at −80° C. Frozen stocks of compounds were thawed immediately prior to addition to cells. Working solutions of each compound were made in α-MEM+5% FBS (v/v) at 3 times the required final concentration for the top well. The final concentration of DMSO in the α-MEM solution was ensured to not exceed 1% of the total volume. 50 μL of the working solution was added to the top wells (in duplicates) and gently mixed. The solubility of some compounds precluded the working solution in α-MEM to be 3 times the desired top well concentration. […] A 3-fold serial dilution was carried out along the plate starting from the top well. The first column of wells on the plate served as blanks (containing α-MEM+FBS) and the second column served as control wells (containing cells with no compound added). Following compound addition, the plates were incubated for 4 hours in a humidified incubator (37° C., 5% CO2).
(§2) Following the 4 hour compound exposure, the 96-well plates were washed three times by aspirating media with an Immuno Washer (Nunc) and each well replaced with 150 μL of α-MEM+5% (v/v) FBS+1% (v/v) P/S. The plates were left in a humidified incubator (37° C., 5% CO2) for 5 days to enable cell growth. The cells in 96-well plates were fixed 5 days after compound exposure by adding 50 μL of a 40% (w/v) trichloroacetic acid (TCA) solution so as to obtain a final TCA concentration of 10% in each well. The plates were left in the refrigerator (4° C.) for 1 hour and subsequently rinsed 3 times in tap water. Any excess water was left to drain and the cells were stained with 50 μL of 0.4% (w/v) sulforhodamine B (SRB). The plates with the SRB stain were left in the dark for 30 minutes. Excess stain was removed from the wells by rinsing the plates 4 times in water containing 1% (v/v) acetic acid. The stain was solubilised by adding 100 μL of 10 mM unbuffered Tris (pH 10.5) to each well and the plates were left in a shaker in a dark environment at room temperature for at least 1 hour. The absorbance values of the wells were determined by an ELx 808 Absorbance Microplate Reader (Bio-Tek Instruments, Winooski, Vt., USA), with the wavelength of the measurement filter set at 490 nm and a reference filter set at 450 nm. The absorbance of the reference filter was subtracted from the measurement filter to obtain a final absorbance of λ490-450 nm. The absorbance data was analysed and IC50 values determined by the KC4 microplate data analysis software (KC4™ V3.4, Bio-Tek).
(§3) Anti-proliferative IC50 assays were repeated as described above including the addition of 3 μM SN34037, a selective and potent small molecule inhibitor of AKR1C3.
(§4) Materials and methods used are as described for Example 9. […] This is a surprising finding and considerably greater than the approximately 77-fold, 270-fold and 400-fold increase in sensitivity observed for PR-104A, SN33540 and SN34454, respectively. In all cases, this increase in cytotoxicity resulting from expression of AKR1C3 can be substantially reversed by addition of an AKR1C3 inhibitor (SN34037), directly implicating metabolism of the prodrugs by AKR1C3 in the observed increase in cytotoxicity. As an important control, introduction of SN34037 had no anti-proliferative effects in wild-type SNU398 cells treated with compounds of the invention.

[2] = tested on: HCT116 colon cancer cells engineered to over-express AKR1C3; assay: Anti-proliferative IC50 assay (SRB), HCT116 over-expressing AKR1C3; format: cell-based, human; conditions: for IC50 Ratio WT:AKR1C3: HCT116-WT vs HCT116-AKR1C3
Excerpt: (§5) The cellular cytotoxicity of compounds of the invention resulting from AKR1C3-dependent metabolism of the compounds can readily be observed in anti-proliferative IC50 testing in isogenic cell lines that have been engineered to over-express human AKR1C3, relative to their wild-type counterparts that have been selected for their comparatively low levels of endogenous AKR1C3 expression (by Western blot analysis). The direct role of AKR1C3 in metabolism and cytotoxicity of the compounds is further supported for selected examples by repeat anti-proliferative experiments in the presence of a potent and selective small molecule inhibitor of AKR1C3, SN34037 (Flanagan et al., Bioorganic & Medicinal Chemistry (2014), 22(3), 967-977).
as §1, §2, §3

[3] = tested on: SNU398 hepatocellular carcinoma cells engineered to over-express AKR1C3; assay: Anti-proliferative IC50 assay, SNU398 over-expressing AKR1C3; format: cell-based, human
Procedure: as §1, §2, §3, §4

[4] = tested on: wild-type HCT116 colon cancer cells; assay: Anti-proliferative IC50 assay (SRB), wild-type HCT116; format: cell-based, human
Excerpt: as §5, §1, §2, §3

[5] = tested on: wild-type H460 lung cancer cells; assay: Anti-proliferative IC50 assay, wild-type H460; format: cell-based, human
Procedure: as §1, §2, §3
Materials and methods used are as described for Example 9.

[6] = target: T1, recombinant human AKR1C3 (Homo sapiens, UniProt P42330); assay: Kinetics assay: metabolism of prodrugs by recombinant human AKR1C3; format: biochemical; conditions: NADPH, pH 7.4, 37° C.
T1 construct: His6 (hexahistidine) (C); made in house; host or cells: E. coli BL21(DE3)
T1 sequence (P42330 1-323): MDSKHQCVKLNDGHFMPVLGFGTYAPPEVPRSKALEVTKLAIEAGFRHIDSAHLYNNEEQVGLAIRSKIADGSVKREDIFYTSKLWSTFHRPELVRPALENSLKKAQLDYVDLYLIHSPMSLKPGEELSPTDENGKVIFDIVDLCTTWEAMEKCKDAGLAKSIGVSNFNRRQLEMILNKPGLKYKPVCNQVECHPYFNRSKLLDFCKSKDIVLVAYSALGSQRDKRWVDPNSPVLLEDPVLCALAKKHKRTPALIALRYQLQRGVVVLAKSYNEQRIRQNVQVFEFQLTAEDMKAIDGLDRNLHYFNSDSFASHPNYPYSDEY
Procedure: E. coli BL21(DE3) cells expressing the pET22b-AKR1C3 construct with a C-terminal hexahistidine (His6) tag and constitutive promoter was generated. Colonies of these transformed E. coli cells were grown in LB agar medium containing 100 μg/mL of ampicillin. A single colony was picked the following day and grown in 400 mL batches of bacterial medium containing ampicillin (100 μg/mL) at 37° C., with continuous shaking at 200 rpm overnight. Bacterial cultures were pelleted by centrifugation (4000×g, 15 minutes) and resuspended in lysis buffer (10 mL/400 mL culture). The cells were disrupted by sonication (Sonicator 3000, Misonix) and centrifuged at 14,000 rpm for 30 minutes (at 4° C.). The cleared lysate was filtered in successive filters containing pore sizes of 1.20 μm, 0.8 μm and 0.2 μm and loaded onto a nickel-agarose affinity chromatography column on an ÄKTA Purifier system. The column was washed with 20 mL of the lysis buffer and the His6-tagged AKR1C3 protein was eluted with lysis buffer supplemented with 500 mM imidazole. The protein was further purified by a liquid chromatography gel filtration column (Superdex 200 HR16/60) using lysis buffer (supplemented with 5% v/v glycerol) and 1 mM DTT (pH 7.0) at a flow rate of 0.3 mL/min. Protein was monitored by absorbance at 280 nm, and purity of the fractions (1 mL) was assessed by SDS-PAGE. Active fractions containing the purified protein were pooled and concentrated by centrifugation (3,000×g, 4° C.) on a Vivaspin concentrator (MWCO 10,000 cutoff; GE Healthcare). The protein containing solution was supplemented with glycerol (to a final concentration of 15%, v/v) and NADP^+ was added to a final concentration of 2 mM.
Kinetic parameters of compounds of the invention were determined in a 96-well plate format. The 100 mM potassium phosphate buffer used in this assay was made with the following reagents to a pH of 7.4: • 0.5 M K2HPO4— 8.2 mL • 0.5 M KH2PO4— 1.8 mL • BSApowder—25 mg • Milli Q water—40 mL
For the assay, 2 μL of varying substrate concentrations were incubated with 94 μL of the potassium phosphate buffer and 2 μL of 5 mM NADPH for 5 minutes in the pre-warmed (37° C.) plate chamber of a Molecular Devices SpectraMax M2 plate reader. Purified AKR1C3 enzyme (2 μL) was added to a final concentration of […] in each well using an Eppendorf electronic multi-channel pipette. Absorbance measurements were recorded immediately upon addition of enzyme over a period of 5 minutes at a wavelength of 400 nm. Absorbance changes for each compound concentration were plotted against time to obtain the rate of absorbance change over the 5 minute period. The rate of absorbance change was then plotted against the compound concentration and non-linear regression analysis and Michaelis-Menten curve fitting performed on GraphPadPrism (version 5.00 for Windows, GraphPad Software, San Diego Calif. USA) in order to determine kinetic parameters of compounds.

[7] = Homo sapiens, SNU-398; read-out: SNU398-WT Anti-proliferative IC50
[8] = Homo sapiens, SNU-398; with 3 μM SN34037; read-out: SNU398-WT +AKR1C3 Inhibitor Anti-proliferative IC50
[9] = Homo sapiens, HCT-116, 4 hour exposure, 5 days growth, read-out: HCT116-AKR1C3 IC50
[10] = with 3 μM SN34037, read-out: HCT116-AKR1C3 + AKR1C3 Inhibitor IC50
[11] = Homo sapiens, SNU-398; read-out: SNU398-AKR1C3 Anti-proliferative IC50
[12] = Homo sapiens, SNU-398; with 3 μM SN34037; read-out: SNU398-AKR1C3 +AKR1C3 Inhibitor Anti-proliferative IC50
[13] = Homo sapiens, HCT-116, 4 hour exposure, 5 days growth, read-out: HCT116-WT IC50
[14] = with 3 μM SN34037, read-out: HCT116-WT + AKR1C3 Inhibitor IC50
[15] = Homo sapiens, NCI-H460; read-out: H460-WT Anti-proliferative IC50
[16] = Homo sapiens, NCI-H460; with 3 μM SN34037; read-out: H460-WT +AKR1C3 Inhibitor Anti-proliferative IC50
[17] = Homo sapiens, HCT-116, read-out: HCT116-AKR1C3 IC50
[18] = Homo sapiens, HCT-116, read-out: HCT116-WT IC50

Row | SMILES | IC50 [1, 7] | IC50 [1, 8] | IC50 Ratio WT:AKR1C3 [2] | IC50 [2, 9] | IC50 [2, 10] | IC50 [3, 11] | IC50 [3, 12] | IC50 [4, 13] | IC50 [4, 14] | IC50 [5, 15] | IC50 [5, 16] | IC50 [2, 17] | IC50 [4, 18] | Km [6] | kcat [6] | other results
1 | CS(=O)(=O)OCCN(CCOS(C)(=O)=O)c1ccc([N+](=O)[O-])cc1S(=O)(=O)N1CCN(CC(O)CO)CC1 (stereo not drawn) [Compound 644, ((2-((4-(2,3-dihydroxypropyl)piperazin-1-yl)sulfonyl)-4-nitrophenyl)azanediyl)bis(ethane-2,1-diyl) dimethanesulfonate] | 73.8 µM | 68.4 µM | 978 | 0.109 µM | 47 µM | 0.262 µM | 63.7 µM | 107 µM | 112 µM | 0.387 µM | 88.3 µM |  |  |  |  | 
2 | CS(=O)(=O)OCCN(CCOS(C)(=O)=O)c1ccc([N+](=O)[O-])cc1S(=O)(=O)N1CCNCC1 [Compound 640, ((4-nitro-2-(piperazin-1-ylsulfonyl)phenyl)azanediyl)bis(ethane-2,1-diyl) dimethanesulfonate] | 8.47 µM | 8.49 µM | 469 | 0.009 µM | 2.06 µM | 0.026 µM | 6.54 µM | 4.22 µM | 4.1 µM | 0.027 µM | 5.88 µM |  |  |  |  | 
3 | O=C(c1cc([N+](=O)[O-])cc([N+](=O)[O-])c1N(CCBr)CCBr)N1CCc2ccccc2C1 [SN34947, reference compound] |  |  | 28 |  |  |  |  |  |  |  |  | 2.41 µM | 66.8 µM | 7.8 µM | 23.8 s⁻¹ | 
4 | CCN1CCN(S(=O)(=O)c2cc([N+](=O)[O-])ccc2N(CCOS(C)(=O)=O)CCOS(C)(=O)=O)CC1 [Compound 642, ((2-((4-ethylpiperazin-1-yl)sulfonyl)-4-nitrophenyl)azanediyl)bis(ethane-2,1-diyl) dimethanesulfonate] |  |  | 1930 |  |  |  |  |  |  |  |  | 0.001 µM | 1.93 µM |  |  | IC50 ([1]; Homo sapiens, SNU-398, read-out: SNU398-WT +AKR1C3 Inhibitor Anti-proliferative IC50): 12.1 µM; IC50 ([1]; Homo sapiens, SNU-398, read-out: SNU398-WT Anti-proliferative IC50): 10.3 µM; IC50 ([2]; read-out: HCT116-AKR1C3 + AKR1C3 Inhibitor IC50, with 3 μM SN34037): 0.828 µM; IC50 ([3]; Homo sapiens, SNU-398, read-out: SNU398-AKR1C3 +AKR1C3 Inhibitor Anti-proliferative IC50): 1.28 µM; IC50 ([3]; Homo sapiens, SNU-398, read-out: SNU398-AKR1C3 Anti-proliferative IC50): 0.002 µM; IC50 ([4]; read-out: HCT116-WT + AKR1C3 Inhibitor IC50, with 3 μM SN34037): 2.37 µM; IC50 ([5]; Homo sapiens, NCI-H460, read-out: H460-WT +AKR1C3 Inhibitor Anti-proliferative IC50): 2.24 µM; IC50 ([5]; Homo sapiens, NCI-H460, read-out: H460-WT Anti-proliferative IC50): 0.001 µM
5 | N#Cc1cccc2c1CCN(C(=O)c1cc([N+](=O)[O-])cc([N+](=O)[O-])c1N(CCBr)CCBr)C2 [SN34951, reference compound] |  |  | >38 |  |  |  |  |  |  |  |  | 3.97 µM | > 150 µM | 8.5 µM | 29.0 s⁻¹ | 
6 | CS(=O)(=O)OCCN(CCBr)c1c(C(=O)N2CCN(c3ccccc3)CC2)cc([N+](=O)[O-])cc1[N+](=O)[O-] [SN35028, reference compound] |  |  | >36 |  |  |  |  |  |  |  |  | 4.15 µM | > 150 µM | 7.3 µM | 29.1 s⁻¹ | 
